Source: PMC9572541, “Design, Synthesis and Biological Evaluation of Novel and Potent Protein Arginine Methyltransferases 5 Inhibitors for Cancer Therapy” (Molecules, 2022)

How the values were obtained:
AML-12 hepatocytes = experiment: Toxicity on normal AML-12 hepatocytes; assay type: cell-based; conditions: Mus musculus, AML12; for inhibition at 10 µM: read-out: AML-12 Inhibition Rate% @10 μM; for inhibition at 20 µM: read-out: AML-12 Inhibition Rate% @20 μM
Source text: (§1) MV-4-11 and MDA-MB-468 cell lines were used to evaluate the anti-proliferative activities of the selected target compounds (CellTiter-Glo assay), and AML-12 hepatocytes were selected to evaluate the toxicity of the compounds.
MV-4-11 and MDA-MB-468 cell line were derived from Cell Resources Center of Shanghai Academy of life sciences (Shanghai, China). AML-12 cell line was brough from Nanjing Lixing Biotechnology Co. Ltd. (Nanjing, China). MDA-MB-468 cell line was maintained in Dulbecco’s Modified Eagle Medium (DMEM, KeyGEN Bio) that contained 10% FBS (Biochanel, China), MV-4-11 cell line was maintained in Iscove’s Modified Dulbecco Medium containing; 10% FBS (Biochannel, China), AML-12 cell line was maintained in DMEM/F-12 (1:1) (KeyGEN, China; 1% ITS Liquid Media Supplement (Sigma, America), dexamethasone 40 ng/mL (Sigma, USA) and 10% FBS (Biochannel, China). All cells were grown in a humidified incubator containing 5% carbon dioxide at 37 ℃. All compounds were dispersed in dimethyl sulfoxide (Sigma), the concentration of the reserve solution was 10 mmol/L and the solution was stored in a refrigerator at −20 ℃. SDMA (# 13222S), β- Tubulin (#2146S) and horseradish peroxidase (HRP)-linked secondary antibodies anti-rabbit or anti-mouse IgG were purchased from Cell Signaling Technology (CST), and the anti-PRMT5 (ab109451) antibody was purchased from ABCAM. […]

MV-4-11 cells = experiment: Anti-proliferation CellTiter-Glo assay, MV-4-11; assay type: cell-based; conditions: Homo sapiens, MV4-11, 12th day
Source text: as §1
(§2) MV-4-11 and MDA-MB-468 cell line were derived from Cell Resources Center of Shanghai Academy of life sciences (Shanghai, China). AML-12 cell line was brough from Nanjing Lixing Biotechnology Co. Ltd. (Nanjing, China). MDA-MB-468 cell line was maintained in Dulbecco’s Modified Eagle Medium (DMEM, KeyGEN Bio) that contained 10% FBS (Biochanel, China), MV-4-11 cell line was maintained in Iscove’s Modified Dulbecco Medium containing; 10% FBS (Biochannel, China), AML-12 cell line was maintained in DMEM/F-12 (1:1) (KeyGEN, China; 1% ITS Liquid Media Supplement (Sigma, America), dexamethasone 40 ng/mL (Sigma, USA) and 10% FBS (Biochannel, China). All cells were grown in a humidified incubator containing 5% carbon dioxide at 37 ℃. All compounds were dispersed in dimethyl sulfoxide (Sigma), the concentration of the reserve solution was 10 mmol/L and the solution was stored in a refrigerator at −20 ℃. SDMA (# 13222S), β- Tubulin (#2146S) and horseradish peroxidase (HRP)-linked secondary antibodies anti-rabbit or anti-mouse IgG were purchased from Cell Signaling Technology (CST), and the anti-PRMT5 (ab109451) antibody was purchased from ABCAM.
(§3) The antiproliferative activities of compounds in vitro were measured by CellTiter-Glo (CTG) assay (Promega, America). In linear/log-phase growth, cultured MV-4-11 cells were split to with seeding density of 2 × 10^5 cells/mL in 1–20 mL of media, depending on the yield required at the end of the growth period. At the conclusion of each treatment period, cells were harvested by centrifugation (4 min, 1000 rpm), and cell pellets were rinsed twice with PBS before being research further processing. Afterwards, cells were plated in 96-well plates with a density of 500 cells/well in […] media. After six hours incubation, compounds treatment was performed. Half of the culture medium was moved and re-plated with fresh media with fresh compound after 6 days. On the 12th day, Cell Titer-Glo Luminescent Cell Viability assays (Promega, USA) were used to determine the viable cell number, and luminescence was recorded using the Envision Multilabel Plate Readers (PerkinElmer). The concentration dependence curves were determined at each time point using GraphPad Prism 8.0 software.

MDA-MB-468 cells = experiment: Anti-proliferation CellTiter-Glo assay, MDA-MB-468; assay type: cell-based; conditions: Homo sapiens
Source text: as §1, §2, §3

PRMT5 = biological target: T1, PRMT5 (Homo sapiens, UniProt O14744); experiment: PRMT5 enzymatic activity inhibition assay (radioactive methylation, 3H-SAM to H4R3 peptide); assay type: biochemical; conditions: for inhibition at 0.1 µM: 100 nM compound, read-out: Inhibition Rate% @100 nM
T1 construct: The final concentrations of PRMT5 enzyme: 2.5 nm/L
Protocol: The PRMT5 enzymatic activity assay was conducted by Chempartner Life science. The final concentrations of PRMT5 enzyme: 2.5 nm/L; ^3H-SAM: 0.3 μM/L; histone peptide (H4R3S1ac): 0.3 μM/L. The protocol of radioactive methylation assay was as follows: (1) Prepare 1× assay buffer (modified Tris Buffer). (2) Transfer compounds to assay plate using Echo in 100% DMSO. DMSO’s final fraction is 1%. (3) Prepare enzyme and ^3H-SAM Mix solution in 1× assay buffer. (4) Prepare substrate (peptide sequence Ac-[…]-K(Biotin)) solution in 1× assay buffer. (5) Transfer 15 μL of enzyme and ^3H-SAM solution to assay plate. (6) Incubate at room temperature for 60 min. (7) Add 10 μL of substrate solution to each well to start the reaction, and for low control transfer 10 μL of 1× assay buffer. (8) Incubate at room temperature for 120 min. (9) Add cold SAM in 1× assay buffer to make the stop mix. (10) Stop reaction with addition of 5 µL per well of stop solution. (11) Transfer 25 µL of volume per well to Flash plate from assay plate. (12) Incubate for 1 h minimum at room temperature.
(13) Read plate on Micro beta. (14) Data process—get the data in Excel to obtain inhibition values using Equation (1).Inhibitory rate% = (Max-Signal)/ (Max-Min) × 100(1)
Fit the data in XL-Fit to obtain IC50 values using Equation (2): Y = Bottom + (Top-Bottom)/(1 + (IC50/X) […]) Y is% inhibition and X is compound concentration(2)

[1] = no reference given; cited from earlier work
MV-4-11 xenograft = MV-4-11 xenograft mouse model; assay type: in vivo, BALB/c nude mice; conditions: 10 mg/kg, twice daily (BID), 28 days
Protocol: Based on the excellent enzymatic and anti-proliferative activities of compound 20 in vitro, we then evaluated antitumor activities in vivo in an MV-4-11 xenograft mouse model.
Male BALB/c nude mice (6–8 weeks old) were purchased from Hangzhou Medical College. All animals were housed in a specific pathogen-free facility. MV-4-11 cells (5 × 10^6) suspended in 0.2 mL of PBS were inoculated subcutaneously on the right flank of each BALB/c nude mouse. Mice were divided randomly (5 mice for each group) into two treatment groups and a control group when the size of the tumors reached 150 mm^3. […] The tumor volume and body weight were measured every 2 days. The tumor volume was determined with Vernier calipers and calculated as follows: tumor volume = a × b^2/2, where a and b stand for the longest and shortest diameters measured by the vernier caliper, respectively. All animal experiments have been approved by Pharmaceutical Experiment Center of China Pharmaceutical University.
(A) The resulting tumors excised from the animals after treatment. […] (C) The nude mouse body weight was measured every 2 days. (D) The tumor volumes of the nude mice were measured and calculated once every 2 days.

T1 sequence (O14744 whole entry): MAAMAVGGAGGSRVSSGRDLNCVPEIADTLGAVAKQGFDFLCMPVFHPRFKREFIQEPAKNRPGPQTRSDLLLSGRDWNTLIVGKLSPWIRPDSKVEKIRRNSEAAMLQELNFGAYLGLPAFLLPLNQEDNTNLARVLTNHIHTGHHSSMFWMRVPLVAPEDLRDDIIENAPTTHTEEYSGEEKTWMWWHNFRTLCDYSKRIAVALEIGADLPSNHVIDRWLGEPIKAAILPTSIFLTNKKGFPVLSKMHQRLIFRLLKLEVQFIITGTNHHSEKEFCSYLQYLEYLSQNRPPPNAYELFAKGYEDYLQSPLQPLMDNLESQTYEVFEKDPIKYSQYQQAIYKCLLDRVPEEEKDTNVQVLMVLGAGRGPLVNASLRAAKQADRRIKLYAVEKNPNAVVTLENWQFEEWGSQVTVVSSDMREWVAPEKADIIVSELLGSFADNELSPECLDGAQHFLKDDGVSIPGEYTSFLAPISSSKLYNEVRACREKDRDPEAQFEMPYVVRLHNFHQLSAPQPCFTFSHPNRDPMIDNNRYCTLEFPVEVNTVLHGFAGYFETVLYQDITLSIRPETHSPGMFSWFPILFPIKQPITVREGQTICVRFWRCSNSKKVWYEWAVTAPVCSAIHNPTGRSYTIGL
T1 sequence (Q9BQA1 whole entry partner): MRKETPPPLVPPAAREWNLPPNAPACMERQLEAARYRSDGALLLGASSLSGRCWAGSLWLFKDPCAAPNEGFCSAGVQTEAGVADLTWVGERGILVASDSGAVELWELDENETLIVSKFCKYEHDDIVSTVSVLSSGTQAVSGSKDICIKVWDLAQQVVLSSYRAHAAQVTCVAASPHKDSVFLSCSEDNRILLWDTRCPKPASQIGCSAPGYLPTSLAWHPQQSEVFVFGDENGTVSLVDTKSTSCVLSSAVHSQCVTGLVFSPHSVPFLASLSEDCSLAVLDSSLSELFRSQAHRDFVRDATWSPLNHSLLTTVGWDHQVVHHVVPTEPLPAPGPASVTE

| GI50 (MV-4-11 cells) [nM] | GI50 (MDA-MB-468 cells) [nM] | inhibition at 0.1 µM (PRMT5) [%] | IC50 (PRMT5) [nM] | Compound | inhibition at 10 µM (AML-12 hepatocytes) [%] | inhibition at 20 µM (AML-12 hepatocytes) [%] | adverse events in clinical studies [1] | TGI (MV-4-11 xenograft) [%] |
| --- | --- | --- | --- | --- | --- | --- | --- | --- |
| 42.4 ± 2.6 | 126 ± 70.9 | 71 ± 1.3 |  | O=C(NC[C@H](O)CN1CCc2ccccc2C1)c1ccc2[nH]c3c(c2c1)CCCCCC3 [Compound 10, (S)-N-(3-(3,4-dihydroisoquinolin-2(1H)-yl)-2-hydroxypropyl)-6,7,8,9,10,11-hexahydro-5H-cycloocta[b]indole-2-carboxamide] | 97.9 ± 1.2 | 100.7 ± 0.1 |  |  |
| 16 ± 2.3 | 99.1 ± 8.3 | 80 ± 1 | 7.5 ± 0.3 | O=C(NC[C@H](O)CN1CCc2ccccc2C1)c1ccc2c(c1)c1c(n2CC2CCC2)CCCC1 [Compound 19, (S)-9-(cyclobutylmethyl)-N-(3-(3,4-dihydroisoquinolin-2(1H)-yl)-2-hydroxypropyl)-2,3,4,9-tetrahydro-1H-carbazole-6-carboxamide] | 32.9 ± 5.4 | 100.2 ± 0.9 |  |  |
| 29.7 ± 12.8 | 286 ± 5.9 | 81 ± 3.2 | 8.8 ± 0.4 | CCn1c2c(c3cc(C(=O)NC[C@H](O)CN4CCc5ccccc5C4)ccc31)CCCC2 [Compound 14, (S)-N-(3-(3,4-dihydroisoquinolin-2(1H)-yl)-2-hydroxypropyl)-9-ethyl-2,3,4,9-tetrahydro-1H-carbazole-6-carboxamide] | -67 ± 11.3 | 17.7 ± 3.5 |  |  |
| 39.5 ± 1.9 | 24.9 ± 20.2 | 79 ± 4 | 4.2 ± 2.1 | CCCn1c2c(c3cc(C(=O)NC[C@H](O)CN4CCc5ccccc5C4)ccc31)CCCC2 [Compound 15] | -21.5 ± 2 | 77.3 ± 1.6 |  |  |
| 54.1 ± 20.5 | > 250 | 75 ± 0.7 | 18.6 ± 0.9 | O=C(NC[C@H](O)CN1CCc2ccccc2C1)c1ccc2[nH]c3c(c2c1)CCCC3 [Compound 7, (S)-N-(3-(3,4-dihydroisoquinolin-2(1H)-yl)-2-hydroxypropyl)-2,3,4,9-tetrahydro-1H-carbazole-6-carboxamide] | 46.4 ± 3.7 | 98.4 ± 0.7 |  |  |
| 271 ± 152 | 552 ± 33 | 73 ± 0.7 | 13 ± 8.9 | O=C(NC[C@H](O)CN1CCc2ccccc2C1)c1ccc2[nH]c3ccccc3c2c1 [Compound 1, (S)-N-(3-(3,4-dihydroisoquinolin-2(1H)-yl)-2-hydroxypropyl)-9H-carbazole-3-carboxamide] | 16.7 ± 10.4 | 97.5 ± 0.1 |  |  |
| 163.1 ± 0.3 | 147 ± 2.5 | 75 ± 0.7 | 10 ± 4.4 | Cn1c2c(c3cc(C(=O)NC[C@H](O)CN4CCc5ccccc5C4)ccc31)CCCC2 [Compound 13, (S)-N-(3-(3,4-dihydroisoquinolin-2(1H)-yl)-2-hydroxypropyl)-9-methyl-2,3,4,9-tetrahydro-1H-carbazole-6-carboxamide] | 16.3 ± 3.4 | 21.2 ± 2 |  |  |

| Compound | GI50 (MV-4-11 cells) [nM] | GI50 (MDA-MB-468 cells) [nM] | inhibition at 0.1 µM (PRMT5) [%] | IC50 (PRMT5) [nM] | inhibition at 10 µM (AML-12 hepatocytes) [%] | inhibition at 20 µM (AML-12 hepatocytes) [%] | adverse events in clinical studies [1] | TGI (MV-4-11 xenograft) [%] |
| --- | --- | --- | --- | --- | --- | --- | --- | --- |
| CC(=O)N1CCC(Nc2cc(C(=O)NC[C@H](O)CN3CCc4ccccc4C3)ncn2)CC1 [GSK-3326595, reference compound] | 9.3 ± 2.8 | 37.3 ± 3 |  |  | 22.9 ± 3 | 26.5 ± 2 | grade 3 or 4 adverse events | 39.3 |
